{"source": "ChEMBL document CHEMBL3045068", "about": "“Effect of methomyl and oxamyl soil applications on early control of nematodes and insects” (Pest Manag Sci, 2011)", "key": {"Myzus persicae": {"test_system": "Myzus persicae", "assay": "Insecticidal activity against Myzus persicae (green peach aphid) infested tomato assessed as mortality applied to soil after 5 days", "type": "functional"}, "Phaseolus lunatus [1]": {"test_system": "Phaseolus lunatus", "assay": "Phytotoxicity in Phaseolus lunatus (lima bean) root assessed as root dry weight at 3.12 kg ai/ha applied to soil measured up to 14 days under green house conditions (reference value: 0.36 +/- 0.071 g)", "type": "organism-based", "conditions": "in vivo, other, 336 h"}, "Phaseolus lunatus [2]": {"test_system": "Phaseolus lunatus", "assay": "Phytotoxicity in Phaseolus lunatus (lima bean) root assessed as root dry weight at 1.12 kg ai/ha applied to soil under green house conditions (reference value: 0.36 +/- 0.071 g)", "type": "organism-based", "conditions": "in vivo, other"}, "Gossypium hirsutum": {"test_system": "Gossypium hirsutum", "assay": "Phytotoxicity in Gossypium hirsutum (cotton) assessed as concentration required to cause foliar edge burn applied to soil after 3 weeks", "type": "organism-based", "conditions": "in vivo, other, 504 h"}, "Trichoplusia ni": {"test_system": "Trichoplusia ni", "assay": "Insecticidal activity against Trichoplusia ni (cabbage looper) infested cabbage assessed as mortality applied through foliar spray after 72 hr", "type": "functional"}, "Spodoptera exigua": {"test_system": "Spodoptera exigua", "assay": "Insecticidal activity against Spodoptera exigua infested tomato assessed as mortality applied to soil after 72 hr", "type": "functional"}, "Meloidogyne incognita [3]": {"test_system": "Meloidogyne incognita", "assay": "Nematicidal activity against second juvenile stage of Meloidogyne incognita (root-knot nematode) infected lima bean plant assessed as shoot dry weight at 3 kg ai/ha applied to soil measured up to 14 days post planting under green house conditions (reference value: 1.84 +/- 0.18 g)", "type": "functional"}, "Meloidogyne incognita [4]": {"test_system": "Meloidogyne incognita", "assay": "Nematicidal activity against second juvenile stage of Meloidogyne incognita (root-knot nematode) infected lima bean plant assessed as shoot dry weight at 1 kg ai/ha applied to soil measured during planting under green house conditions (reference value: 1.84 +/- 0.18 g)", "type": "functional"}, "Meloidogyne incognita [5]": {"test_system": "Meloidogyne incognita", "assay": "Nematicidal activity against second juvenile stage of Meloidogyne incognita (root-knot nematode) infected lima bean plant assessed as root dry weight at 2 kg ai/ha applied to soil measured up to 7 days post planting under green house conditions (reference value: 0.5 +/- 0.052 g)", "type": "functional"}, "Meloidogyne incognita [6]": {"test_system": "Meloidogyne incognita", "assay": "Nematicidal activity against second juvenile stage of Meloidogyne incognita (root-knot nematode) infected lima bean plant assessed as root dry weight at 1 kg ai/ha applied to soil measured during planting under green house conditions (reference value: 0.5 +/- 0.052 g)", "type": "functional"}, "Meloidogyne incognita [7]": {"test_system": "Meloidogyne incognita", "assay": "Nematicidal activity against second juvenile stage of Meloidogyne incognita (root-knot nematode) infected lima bean plant assessed as shoot dry weight at 4 kg ai/ha applied to soil measured up to 14 days post planting under green house conditions (reference value: 1.84 +/- 0.18 g)", "type": "functional"}, "Meloidogyne incognita [8]": {"test_system": "Meloidogyne incognita", "assay": "Nematicidal activity against second juvenile stage of Meloidogyne incognita (root-knot nematode) infected pea plant assessed as root dry weight at 4 kg ai/ha applied to soil measured up to 14 days post planting under green house conditions (reference value: 0.25 +/- 0.041 g)", "type": "functional"}, "Meloidogyne incognita [9]": {"test_system": "Meloidogyne incognita", "assay": "Nematicidal activity against second juvenile stage of Meloidogyne incognita (root-knot nematode) infected pea plant assessed as root dry weight at 2 kg ai/ha applied to soil measured up to 7 days post planting under green house conditions (reference value: 0.25 +/- 0.041 g)", "type": "functional"}, "Meloidogyne incognita [10]": {"test_system": "Meloidogyne incognita", "assay": "Nematicidal activity against second juvenile stage of Meloidogyne incognita (root-knot nematode) infected pea plant assessed as emergence at 2 kg ai/ha applied to soil measured up to 7 days post planting under green house conditions (reference value: 75 +/- 13%)", "type": "functional"}, "Meloidogyne incognita [11]": {"test_system": "Meloidogyne incognita", "assay": "Nematicidal activity against second juvenile stage of Meloidogyne incognita (root-knot nematode) infested soil containing cucumber seeds assessed as mortality applied post seed germination measured after 7 days under green house conditions", "type": "functional"}, "Meloidogyne incognita [12]": {"test_system": "Meloidogyne incognita", "assay": "Nematicidal activity against second juvenile stage of Meloidogyne incognita (root-knot nematode) infected pea plant assessed as root fresh weight at 4 kg ai/ha applied to soil measured up to 14 days post planting under green house conditions (reference value: 1.83 +/- 0.3 g)", "type": "functional"}, "Phaseolus lunatus [13]": {"test_system": "Phaseolus lunatus", "assay": "Phytotoxicity in Phaseolus lunatus (lima bean) plant assessed as emergence at 2.12 kg ai/ha applied to soil measured up to 7 days under green house conditions (reference value: 70 +/- 16%)", "type": "organism-based", "conditions": "in vivo, other, 168 h"}, "Phaseolus lunatus [14]": {"test_system": "Phaseolus lunatus", "assay": "Phytotoxicity in Phaseolus lunatus (lima bean) plant assessed as emergence at 1.56 kg ai/ha applied to soil measured up to 7 days under green house conditions (reference value: 70 +/- 16%)", "type": "organism-based", "conditions": "in vivo, other, 168 h"}, "Phaseolus lunatus [15]": {"test_system": "Phaseolus lunatus", "assay": "Phytotoxicity in Phaseolus lunatus (lima bean) plant assessed as emergence at 0.56 kg ai/ha under green house conditions applied to soil (reference value: 70 +/- 16%)", "type": "organism-based", "conditions": "in vivo, other"}, "Pisum sativum [16]": {"test_system": "Pisum sativum", "assay": "Phytotoxicity in Pisum sativum (pea) assessed as root dry weight at 3 kg ai/ha applied to soil measured up to 7 days post planting at 19 degC (reference value: 2 +/- 0.21 g)", "type": "organism-based", "conditions": "lathyrus oleraceus, in vivo, other, 168 h"}, "Pisum sativum [17]": {"test_system": "Pisum sativum", "assay": "Phytotoxicity in Pisum sativum (pea) assessed as plant fresh weight at 4 kg ai/ha applied to soil measured up to 7 days post planting at 19 degC (reference value: 9.4 +/- 0.54 g)", "type": "organism-based", "conditions": "lathyrus oleraceus, in vivo, other, 168 h"}, "Pisum sativum [18]": {"test_system": "Pisum sativum", "assay": "Phytotoxicity in Pisum sativum (pea) assessed as plant fresh weight at 3 kg ai/ha applied to soil measured up to 14 days post planting at 27 degC under green house conditions (reference value: 3.9 +/- 0.83 g)", "type": "organism-based", "conditions": "lathyrus oleraceus, in vivo, other, 336 h"}, "Pisum sativum [19]": {"test_system": "Pisum sativum", "assay": "Phytotoxicity in Pisum sativum (pea) assessed as plant fresh weight at 2 kg ai/ha applied to soil measured up to 7 days post planting at 27 degC under green house conditions (reference value: 3.9 +/- 0.83 g)", "type": "organism-based", "conditions": "lathyrus oleraceus, in vivo, other, 168 h"}, "Pisum sativum [20]": {"test_system": "Pisum sativum", "assay": "Phytotoxicity in Pisum sativum (pea) assessed as plant height at 3 kg ai/ha applied to soil measured up to 7 days post planting at 19 degC (reference value: 6.2 +/- 0.6 cm)", "type": "organism-based", "conditions": "lathyrus oleraceus, in vivo, other, 168 h"}, "Pisum sativum [21]": {"test_system": "Pisum sativum", "assay": "Phytotoxicity in Pisum sativum (pea) assessed as plant height at 4 kg ai/ha applied to soil measured up to 7 days post planting at 27 degC under green house conditions (reference value: 9.6 +/- 1.5 cm)", "type": "organism-based", "conditions": "lathyrus oleraceus, in vivo, other, 168 h"}, "Pisum sativum [22]": {"test_system": "Pisum sativum", "assay": "Phytotoxicity in Pisum sativum (pea) assessed as plant height at 3 kg ai/ha applied to soil measured up to 7 days post planting at 27 degC under green house conditions (reference value: 9.6 +/- 1.5 cm)", "type": "organism-based", "conditions": "lathyrus oleraceus, in vivo, other, 168 h"}, "Pisum sativum [23]": {"test_system": "Pisum sativum", "assay": "Phytotoxicity in Pisum sativum (pea) assessed as plant height at 2 kg ai/ha applied to soil measured up to 7 days post planting at 27 degC under green house conditions (reference value: 9.6 +/- 1.5 cm)", "type": "organism-based", "conditions": "lathyrus oleraceus, in vivo, other, 168 h"}, "Pisum sativum [24]": {"test_system": "Pisum sativum", "assay": "Phytotoxicity in Pisum sativum (pea) assessed as emergence at 4 kg ai/ha applied to soil measured up to 7 days post planting at 27 degC under green house conditions (reference value: 70 +/- 3.3%)", "type": "organism-based", "conditions": "lathyrus oleraceus, in vivo, other, 168 h"}, "Pisum sativum [25]": {"test_system": "Pisum sativum", "assay": "Phytotoxicity in Pisum sativum (pea) assessed as emergence at 3 kg ai/ha applied to soil measured up to 7 days post planting at 27 degC under green house conditions (reference value: 70 +/- 3.3%)", "type": "organism-based", "conditions": "lathyrus oleraceus, in vivo, other, 168 h"}, "Meloidogyne incognita [26]": {"test_system": "Meloidogyne incognita", "assay": "Nematicidal activity against second juvenile stage of Meloidogyne incognita (root-knot nematode) infected lima bean plant assessed as emergence at 3 kg ai/ha applied to soil measured up to 7 days post planting under green house conditions (reference value: 83 +/- 5%)", "type": "functional"}}}
{"compound": "CNC(=O)ON=C(C)SC", "note": "[METHOMYL]", "values": [{"measurement": "LC90", "setting": "Myzus persicae", "value": 11, "unit": "µg/mL"}, {"measurement": "LC50", "setting": "Myzus persicae; Myzus persicae, soil, 120 h", "value": 1, "unit": "µg/mL"}, {"measurement": "Activity", "setting": "Phaseolus lunatus [1]", "value": 0.22, "unit": "g"}, {"measurement": "Activity", "setting": "Phaseolus lunatus [2]", "value": 0.35, "unit": "g"}, {"measurement": "Activity", "setting": "Gossypium hirsutum", "value": 100, "unit": "µg/mL"}, {"measurement": "LC90", "setting": "Trichoplusia ni", "value": 533, "unit": "µg/mL"}, {"measurement": "LC50", "setting": "Trichoplusia ni; Trichoplusia ni, foliar, 72 h", "value": 99, "unit": "µg/mL"}, {"measurement": "LC90", "setting": "Spodoptera exigua", "value": 30, "unit": "µg/mL"}, {"measurement": "LC50", "setting": "Spodoptera exigua; Spodoptera exigua, soil, 72 h", "value": 18, "unit": "µg/mL"}, {"measurement": "Activity", "setting": "Meloidogyne incognita [3]", "value": 1.55, "unit": "g"}, {"measurement": "Activity", "setting": "Meloidogyne incognita [4]", "value": 1.79, "unit": "g"}, {"measurement": "Activity", "setting": "Meloidogyne incognita [5]", "value": 0.38, "unit": "g"}, {"measurement": "Activity", "setting": "Meloidogyne incognita [6]", "value": 0.44, "unit": "g"}, {"measurement": "Activity", "setting": "Meloidogyne incognita [7]", "value": 1.02, "unit": "g"}, {"measurement": "Activity", "setting": "Meloidogyne incognita [8]", "value": 0.31, "unit": "g"}, {"measurement": "Activity", "setting": "Meloidogyne incognita [9]", "value": 0.34, "unit": "g"}, {"measurement": "Activity", "setting": "Meloidogyne incognita [10]", "value": 50, "unit": "%"}, {"measurement": "LC90", "setting": "Meloidogyne incognita [11]", "value": 69.7, "unit": "µg/mL"}, {"measurement": "LC50", "setting": "Meloidogyne incognita [11]; Meloidogyne incognita, Juvenile stage, 168 h", "value": 10.2, "unit": "µg/mL"}, {"measurement": "Activity", "setting": "Meloidogyne incognita [12]", "value": 1.36, "unit": "g"}, {"measurement": "Activity", "setting": "Phaseolus lunatus [13]", "value": 80, "unit": "%"}, {"measurement": "Activity", "setting": "Phaseolus lunatus [14]", "value": 80, "unit": "%"}, {"measurement": "Activity", "setting": "Phaseolus lunatus [15]", "value": 80, "unit": "%"}, {"measurement": "Activity", "setting": "Pisum sativum [16]", "value": 2.2, "unit": "g"}, {"measurement": "Activity", "setting": "Pisum sativum [17]", "value": 8.5, "unit": "g"}, {"measurement": "Activity", "setting": "Pisum sativum [18]", "value": 3.3, "unit": "g"}, {"measurement": "Activity", "setting": "Pisum sativum [19]", "value": 3, "unit": "g"}, {"measurement": "Activity", "setting": "Pisum sativum [20]", "value": 6.9, "unit": "cm"}, {"measurement": "Activity", "setting": "Pisum sativum [21]", "value": 9.1, "unit": "cm"}, {"measurement": "Activity", "setting": "Pisum sativum [22]", "value": 7, "unit": "cm"}, {"measurement": "Activity", "setting": "Pisum sativum [23]", "value": 7.1, "unit": "cm"}, {"measurement": "Activity", "setting": "Pisum sativum [24]", "value": 60, "unit": "%"}, {"measurement": "Activity", "setting": "Pisum sativum [25]", "value": 70, "unit": "%"}, {"measurement": "Activity", "setting": "Meloidogyne incognita [26]", "value": 83, "unit": "%"}]}
